Molecules are shown by their SMILES.

We go through 19 compounds from ChEMBL document CHEMBL5291721, “A preclinical secondary pharmacology resource illuminates target-adverse drug reaction associations of marketed drugs” (Nat Commun, 2023).

Assay [1] concerns the target Synaptic vesicular amine transporter (Rattus norvegicus, UniProt Q01827). It counts as functional.
Assay [2] concerns the target T1, Corticotropin-releasing factor receptor 2 (Homo sapiens, UniProt Q13324).
T1 sequence (Q13324 whole entry): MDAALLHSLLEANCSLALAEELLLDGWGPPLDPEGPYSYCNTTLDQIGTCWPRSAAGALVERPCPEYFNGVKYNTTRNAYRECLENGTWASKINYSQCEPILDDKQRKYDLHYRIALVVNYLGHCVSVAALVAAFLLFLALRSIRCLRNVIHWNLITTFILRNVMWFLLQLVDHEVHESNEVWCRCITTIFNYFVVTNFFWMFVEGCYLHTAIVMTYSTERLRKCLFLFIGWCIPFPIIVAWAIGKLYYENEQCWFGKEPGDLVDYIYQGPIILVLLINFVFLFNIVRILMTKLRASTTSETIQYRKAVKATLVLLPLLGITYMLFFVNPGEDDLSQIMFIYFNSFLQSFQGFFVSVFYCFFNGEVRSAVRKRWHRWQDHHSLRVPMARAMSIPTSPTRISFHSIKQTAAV

In assay [3] the target is T2, Corticotropin-releasing factor receptor 1 (Homo sapiens, UniProt P34998).
T2 sequence (P34998 whole entry): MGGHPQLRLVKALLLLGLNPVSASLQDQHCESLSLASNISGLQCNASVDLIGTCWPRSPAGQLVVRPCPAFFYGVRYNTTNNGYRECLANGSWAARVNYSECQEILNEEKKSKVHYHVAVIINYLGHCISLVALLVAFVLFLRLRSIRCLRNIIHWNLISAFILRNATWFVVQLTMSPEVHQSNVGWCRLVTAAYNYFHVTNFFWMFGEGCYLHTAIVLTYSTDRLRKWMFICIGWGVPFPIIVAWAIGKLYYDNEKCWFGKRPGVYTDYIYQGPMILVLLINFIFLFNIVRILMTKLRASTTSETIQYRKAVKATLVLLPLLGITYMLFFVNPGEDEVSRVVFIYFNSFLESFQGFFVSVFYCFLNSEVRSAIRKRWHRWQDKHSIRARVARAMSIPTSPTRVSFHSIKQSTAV

The target in assay [4] is T3, Gastric inhibitory polypeptide receptor (Homo sapiens, UniProt P48546).
T3 sequence (P48546 whole entry): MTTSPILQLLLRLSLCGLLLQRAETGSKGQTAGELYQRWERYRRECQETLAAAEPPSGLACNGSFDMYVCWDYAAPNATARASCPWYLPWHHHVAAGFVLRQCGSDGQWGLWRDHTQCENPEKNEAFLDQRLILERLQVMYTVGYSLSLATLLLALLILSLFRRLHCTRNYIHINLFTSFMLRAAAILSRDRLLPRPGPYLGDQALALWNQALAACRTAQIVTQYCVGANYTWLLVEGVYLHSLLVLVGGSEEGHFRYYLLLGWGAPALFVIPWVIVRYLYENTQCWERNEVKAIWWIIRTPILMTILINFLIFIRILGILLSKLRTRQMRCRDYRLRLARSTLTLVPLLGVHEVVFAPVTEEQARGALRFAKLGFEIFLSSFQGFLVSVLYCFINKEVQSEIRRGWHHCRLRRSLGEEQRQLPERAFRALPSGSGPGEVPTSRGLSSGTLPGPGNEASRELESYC

Assay [5] addresses T4, Neuropeptide Y receptor type 2 (Homo sapiens, UniProt P49146).
T4 sequence (P49146 whole entry): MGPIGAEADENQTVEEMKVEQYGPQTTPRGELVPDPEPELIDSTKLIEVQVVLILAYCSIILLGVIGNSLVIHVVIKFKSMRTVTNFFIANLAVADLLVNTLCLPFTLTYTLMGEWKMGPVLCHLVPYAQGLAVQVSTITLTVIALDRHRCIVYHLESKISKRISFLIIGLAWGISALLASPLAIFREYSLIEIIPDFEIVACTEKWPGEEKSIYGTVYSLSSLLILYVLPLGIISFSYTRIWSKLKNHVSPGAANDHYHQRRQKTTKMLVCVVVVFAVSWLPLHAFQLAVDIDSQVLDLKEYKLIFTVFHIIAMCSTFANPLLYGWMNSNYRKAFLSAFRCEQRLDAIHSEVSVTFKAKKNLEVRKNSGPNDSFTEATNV

Assay [6] has as its target T5, Muscarinic acetylcholine receptor M2 (Homo sapiens, UniProt P08172).
T5 sequence (P08172 whole entry): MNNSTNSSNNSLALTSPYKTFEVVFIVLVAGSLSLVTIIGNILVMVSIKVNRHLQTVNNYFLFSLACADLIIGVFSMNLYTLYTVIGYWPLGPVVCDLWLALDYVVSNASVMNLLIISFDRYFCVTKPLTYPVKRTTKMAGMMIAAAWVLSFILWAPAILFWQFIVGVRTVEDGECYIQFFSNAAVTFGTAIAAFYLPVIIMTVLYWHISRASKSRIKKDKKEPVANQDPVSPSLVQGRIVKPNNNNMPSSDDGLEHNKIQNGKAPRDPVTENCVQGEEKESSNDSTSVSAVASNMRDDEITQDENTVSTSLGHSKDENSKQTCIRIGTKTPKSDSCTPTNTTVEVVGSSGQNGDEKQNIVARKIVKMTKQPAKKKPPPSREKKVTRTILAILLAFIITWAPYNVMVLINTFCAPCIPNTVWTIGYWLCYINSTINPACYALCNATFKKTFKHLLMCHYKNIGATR
Note: assay procedure not described here.

Synaptic vesicular amine transporter, sequence (Q01827 whole entry): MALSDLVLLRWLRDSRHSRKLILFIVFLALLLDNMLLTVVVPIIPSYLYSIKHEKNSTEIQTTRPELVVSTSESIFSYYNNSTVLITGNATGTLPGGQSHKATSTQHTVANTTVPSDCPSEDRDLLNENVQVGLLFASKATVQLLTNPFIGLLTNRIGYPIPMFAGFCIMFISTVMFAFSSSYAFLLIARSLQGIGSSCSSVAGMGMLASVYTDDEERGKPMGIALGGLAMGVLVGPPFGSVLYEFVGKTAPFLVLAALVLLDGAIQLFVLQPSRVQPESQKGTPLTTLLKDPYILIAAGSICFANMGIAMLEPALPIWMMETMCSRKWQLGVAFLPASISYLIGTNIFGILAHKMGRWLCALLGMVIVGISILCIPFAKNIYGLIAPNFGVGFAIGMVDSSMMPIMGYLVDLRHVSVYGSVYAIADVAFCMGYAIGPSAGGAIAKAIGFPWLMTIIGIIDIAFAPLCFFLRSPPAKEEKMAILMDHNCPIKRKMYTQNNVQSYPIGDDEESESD

For the compound `OC[C@H]1NC[C@H](O)[C@@H](O)[C@H]1O`, in assay [1], the AC50 is above 30 µM.
As to `CCOC(=O)[C@H](CCc1ccccc1)N[C@@H](C)C(=O)N1Cc2ccccc2C[C@H]1C(=O)O`, the AC50 was above 30 µM in assay [2]; above 30 µM in assay [3]; above 30 µM in assay [4]; above 30 µM in assay [5]; above 10 µM in assay [6].
`CN(C)CCC=C1c2ccccc2CCc2ccccc21` [AMITRIPTYLINE]: the AC50 in assay [2], in assay [3], in assay [4] and in assay [5] was above 30 µM each time.
In assay [1], `CN1CC2c3ccccc3Oc3ccc(Cl)cc3C2C1` (configuration not stated) [ASENAPINE] yielded an AC50 of 1.05 µM.
Turning to `CC(=O)Oc1ccccc1C(=O)O` [ASPIRIN], the AC50 in assay [2], in assay [3], in assay [4] and in assay [5] was above 30 µM in each case.
Consider `Cn1cnc2c(F)c(Nc3ccc(Br)cc3F)c(C(=O)NOCCO)cc21` [BINIMETINIB], for which the AC50 in assay [1] was above 30 µM.
Take `CN(C)CCCC1(c2ccc(F)cc2)OCc2cc(C#N)ccc21` (configuration not stated) [CITALOPRAM]: the AC50 in assay [2], in assay [3], in assay [4] and in assay [5] was above 30 µM in each case.
As to `O=c1[nH]c2ccccc2n1CCN1CCN(c2cccc(C(F)(F)F)c2)CC1` [FLIBANSERIN], the AC50 in assay [1] amounted to 0.072 µM.
For the compound `C[C@]12CCC(=O)C=C1CC[C@H]1[C@@H]3CC[C@](O)(C(=O)CO)[C@@]3(C)C[C@H](O)[C@@]12F` [FLUDROCORTISONE], the AC50 is above 30 µM in assay [2]; above 30 µM in assay [3]; above 30 µM in assay [4]; above 30 µM in assay [5]; above 10 µM in assay [6].
On to `NCC1(CC(=O)O)CCCCC1` [GABAPENTIN], for which the AC50 in assay [2] is above 30 µM; in assay [3], above 30 µM; in assay [4], above 30 µM; in assay [5], above 30 µM; in assay [6], above 10 µM.
`OCCOCCN1CCN(C(c2ccccc2)c2ccc(Cl)cc2)CC1` (configuration not stated) [HYDROXYZINE]: the AC50 was above 30 µM in assay [2]; above 30 µM in assay [3]; above 30 µM in assay [4]; above 30 µM in assay [5]; 9.04 µM in assay [6].
`N#Cc1ccnc(N2C(=O)CC[C@H]2C(=O)N(c2cncc(F)c2)[C@H](C(=O)NC2CC(F)(F)C2)c2ccccc2Cl)c1` [IVOSIDENIB] came in with an AC50 in assay [1] above 30 µM.
Turning to `Nc1nnc(-c2cccc(Cl)c2Cl)c(N)n1` [LAMOTRIGINE], the AC50 is above 30 µM in assay [2]; above 30 µM in assay [3]; above 30 µM in assay [4]; 18 µM in assay [1]; above 30 µM in assay [5]; above 10 µM in assay [6].
Consider `O=C1[C@@H]2[C@H]3CC[C@H](C3)[C@@H]2C(=O)N1C[C@@H]1CCCC[C@H]1CN1CCN(c2nsc3ccccc23)CC1` [LURASIDONE], for which the half-maximal activity concentration (AC50) in assay [1] is 0.0699 µM.
Turning to `CCCCCCO[C@@H](C)c1cccc(-c2csc(NC(=O)c3cc(Cl)c(/C=C(\C)C(=O)O)c(Cl)c3)n2)c1OC` [LUSUTROMBOPAG], the AC50 in assay [1] worked out at 4.1 µM.
Consider `CCCCCCCC/C=C\CCCCCCCC(=O)O` [OLEIC ACID], for which the activity in assay [1] was half-maximal at 4.7 µM (AC50).
Compound `CC(=O)SCC(Cc1ccccc1)C(=O)NCC(=O)OCc1ccccc1` (configuration not stated) [RACECADOTRIL] showed an AC50 in assay [6] above 10 µM.
For `Cc1ccc(C(C)C)c(O)c1` [THYMOL], half-maximal activity in assay [1] (AC50) was put at 25 µM.
For `Cc1c(C)c2c(c(C)c1O)CCC(C)(COc1ccc(CC3SC(=O)NC3=O)cc1)O2` (configuration not stated) [TROGLITAZONE], the AC50 in assay [2], in assay [3], in assay [4] and in assay [5] was above 30 µM throughout.

The AC50 is the concentration giving half of the maximal activity seen. A high value points to activity only at high concentration.
